In the supplement of paper PMC10307832:

Assays:
Experiment in all cases: relative viability (nuclei count vs DMSO), 5 days (fraction); higher = more cells survive
[1] = compound: CC(C)(C)c1nc(-c2cccc(NS(=O)(=O)c3c(F)cccc3F)c2F)c(-c2ccnc(N)n2)s1 [Dabrafenib] + COc1cccc2cc(-c3nc([C@H]4CC[C@H](C(=O)O)CC4)n4ncnc(N)c34)[nH]c12 [OSI-027] (partner 0.5 µM)
Summary of the method: (§1)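 Lung cancer cell lines in 1536-well plates got either a single drug or a fixed anchor-drug dose together with five library-drug doses (not always all listed) in √10 steps, by pin tool, on the day after seeding. Nuclei were counted after 5 days, and relative viability is the treated-to-vehicle ratio of nuclei counts. Values are medians of duplicate plates.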

[2] = compound: CC(C)(C)c1nc(-c2cccc(NS(=O)(=O)c3c(F)cccc3F)c2F)c(-c2ccnc(N)n2)s1 [Dabrafenib] + C[C@]1(O)C[C@@H](c2nc(-c3ccc4ccc(-c5ccccc5)nc4c3)c3c(N)nccn32)C1 [Linsitinib] (partner 1 µM)
Summary of the method: as §1

[3] = compound: CC(C)(C)c1nc(-c2cccc(NS(=O)(=O)c3c(F)cccc3F)c2F)c(-c2ccnc(N)n2)s1 [Dabrafenib] + N=C(N)NC(=N)NCCc1ccccc1 [Phenformin] (partner 250 µM)
Summary of the method: as §1

[4] = compound: NC(=O)c1ccc(N(C(N)=O)c2c(F)cccc2F)nc1-c1ccc(F)cc1F [VX-702] + CCNC(=O)c1noc(-c2cc(C(C)C)c(O)cc2O)c1-c1ccc(CN2CCOCC2)cc1 [Luminespib] (partner 0.01 µM)
Summary of the method: as §1

| Cell Line | relative viability ([1]; first compound 0.003 µM) | relative viability ([1]; first compound 0.009487 µM) | relative viability ([1]; first compound 0.03 µM) | relative viability ([1]; first compound 0.3 µM) | relative viability ([2]; first compound 0.003 µM) | relative viability ([2]; first compound 0.009487 µM) | relative viability ([2]; first compound 0.03 µM) | relative viability ([2]; first compound 0.09487 µM) | relative viability ([2]; first compound 0.3 µM) | relative viability ([3]; first compound 0.003 µM) | relative viability ([3]; first compound 0.009487 µM) | relative viability ([3]; first compound 0.03 µM) | relative viability ([3]; first compound 0.3 µM) | relative viability ([4]; first compound 0.02 µM) | relative viability ([4]; first compound 0.2 µM) | relative viability ([4]; first compound 0.6325 µM) | relative viability ([4]; first compound 2 µM) | relative viability ([1]; first compound 0.09487 µM) | relative viability ([3]; first compound 0.09487 µM) |
| --- | --- | --- | --- | --- | --- | --- | --- | --- | --- | --- | --- | --- | --- | --- | --- | --- | --- | --- | --- |
| HCC-827 | 0.586 | 0.955 | 0.744 | 0.657 | 0.905 | 0.964 | 0.96 | 0.998 | 0.974 | 0.31 | 0.447 | 0.354 | 0.385 | 0.449 | 0.638 | 0.504 | 0.273 | – | – |
| HOP-62 | 0.354 | 0.841 | 0.778 | 0.557 | – | 1.07 | 0.804 | 0.831 | 0.977 | 0.518 | 0.604 | 0.627 | 0.495 | 0.926 | 0.899 | 0.916 | 0.962 | 0.631 | 0.491 |
| IA-LM | – | – | – | – | 0.443 | 0.575 | 0.547 | 0.283 | 0.424 | – | – | – | – | – | – | – | – | – | – |
| LC-2-ad | – | 1.14 | 0.83 | 0.859 | 0.93 | 0.768 | 0.802 | 0.764 | 0.851 | – | 0.594 | 0.587 | 0.621 | 0.979 | 1.01 | 1.01 | 1.36 | 0.76 | 0.517 |
| LCLC-97TM1 | 0.308 | 0.535 | 0.683 | 0.237 | – | 0.18 | 0.187 | – | 0.192 | 0.339 | 0.398 | 0.415 | 0.259 | 0.613 | 0.768 | 0.747 | 0.743 | 0.237 | 0.328 |
| LCLC-103H | 0.4 | 0.502 | 0.46 | 0.461 | 1.04 | 1.08 | 0.84 | 1.13 | 1.09 | 0.304 | 0.35 | 0.328 | 0.331 | 0.975 | 0.888 | 1 | 0.986 | 0.51 | 0.345 |
| LK-2 | 0.174 | 0.238 | 0.155 | 0.206 | 0.587 | 0.875 | 0.225 | 0.381 | 0.53 | 0.38 | 0.573 | – | 0.603 | 0.199 | 0.175 | 0.175 | 0.178 | 0.248 | 0.475 |
| LOU-NH91 | 0.488 | 0.801 | 0.666 | 0.75 | – | 1.15 | 0.93 | 0.91 | 0.944 | 0.417 | 0.808 | 0.645 | 0.92 | 0.355 | 0.3 | 0.346 | 0.292 | 0.7 | 0.707 |
| LU99A | 0.282 | 0.307 | 0.29 | 0.268 | 0.542 | 0.532 | 0.484 | 0.476 | 0.476 | 0.907 | 0.883 | 0.887 | 0.671 | 0.27 | 0.204 | 0.267 | 0.189 | 0.339 | 0.862 |
